Test results taken from patent US10023836B2, “Medium for yeasts” (YAMAGUCHI UNIVERSITY, priority 2012, dated 2018).
Where a name gives a salt, the structure may show the parent alone.

Key:
[1] = tested on: Candida albicans JCM1542 strain; assay: Nutritional requirements in AYD culture medium (FIG. 52); type: cell-based; settings: component eliminated from AYD culture medium
Experimental: (§1) In a case where no special provisions are made, a procedure for a cultivation experiment using the culture medium to be investigated for proliferation was such that a yeast undergoing investigation was pre-cultured in a YPD liquid culture medium at 28° C. for 24 hours, after which the yeast was adjusted such that OD600=20. […] In addition, OD600 was measured every 15 minutes by a spectrophotometer (Cell density meter co8000, WPA). Hereafter, data is represented by graphs for a case using the automatic spectrophotometer; however, these graphs are primarily used to compare the slope of logarithmic growth phase proliferation curves for each culture medium, and because OD600 is measured without dilution, values where OD600=3 to 3.5 or more may be incorrect.
(§2) Each of the yeast strains was cultured under identical conditions using the basic culture method described above.

[2] = tested on: Candida glabrata BY23876 strain; assay: Nutritional requirements in AYD culture medium (FIG. 50); type: cell-based; settings: component eliminated from AYD culture medium
Experimental: In a case where no special provisions are made, a procedure for a cultivation experiment using the culture medium to be investigated for proliferation was such that a yeast undergoing investigation was pre-cultured in a YPD liquid culture medium at 28° C. for 24 hours, after which the yeast was adjusted such that OD600=20. Thereafter, 5 μL of culture solution was inoculated in 5 mL of each culture medium to be investigated, which had been dispensed into L-shaped test tubes (final OD60=0.02); aerobic roller tube culture was performed at 28° C.; and OD was continuously measured with an automatic spectrophotometer (BioPhoto recorder TVS062CA, […]). In addition, OD600 was measured every 15 minutes by a spectrophotometer (Cell density meter co8000, WPA). Hereafter, data is represented by graphs for a case using the automatic spectrophotometer; however, these graphs are primarily used to compare the slope of logarithmic growth phase proliferation curves for each culture medium, and because OD600 is measured without dilution, values where OD600=3 to 3.5 or more may be incorrect.
Nutritional requirements of each of the following yeast strains were investigated in the AYD culture medium, and utility of the AYD culture medium was confirmed. Each of the yeast strains was cultured under identical conditions using the basic culture method described above.

[3] = tested on: Candida utilis JCM9624 strain; assay: Nutritional requirements in AYD culture medium (FIG. 51); type: cell-based; settings: component eliminated from AYD culture medium
Experimental: as §1, §2

RAK3599 strain = assay: Vitamin and FeCl3 concentration in AKD′ culture medium (FIGS. 22 to 28); type: cell-based, Saccharomyces cerevisiae; settings: for proliferation at a content of 0: AKD′ culture medium without the substance
Experimental: as §1
Pyridoxine concentration in the AKD′ culture medium was adjusted to 0, 0.004, 0.04, 0.4, 4, and 40 μg/mL, respectively, and proliferation of the RAK3599 strain was investigated.
Pantothenic acid concentration in the AKD′ culture medium was adjusted to 0, 0.004, 0.04, 0.4, 4, and 40 μg/mL, respectively, and proliferation of the RAK3599 strain was investigated.
Thiamine concentration in the AKD′ culture medium was adjusted to 0, 0.004, 0.04, 0.4, 4, and 40 μg/mL, respectively, and proliferation of the RAK3599 strain was investigated.
Nicotinic acid concentration in the AKD′ culture medium was adjusted to 0, 0.004, 0.04, 0.4, 4, and 40 μg/mL, respectively, and proliferation of the RAK3599 strain was investigated.
Myo-inositol concentration in the AKD′ culture medium was adjusted to 0, 0.02 μg/mL, 0.2 μg/mL, 2 μg/mL, 20 μg/mL, and 200 μg/mL, respectively, and proliferation of the RAK 3599 strain was investigated.
FeCl3 concentration in the AKD′ culture medium was adjusted to 0, 0.002, 0.02, 0.2, 2, and 20 μg/mL, respectively, and proliferation of the RAK3599 strain was investigated.

[4] = tested on: commercially available baker's yeast; assay: Investigation of carbon source added instead of glucose in BM culture medium (FIG. 5); type: cell-based; settings: 2% added singly instead of glucose in BM culture medium, 28° C., 24 hours
Experimental: OD600 was measured after commercially available baker's yeast had been cultivated at 28° C. for 24 hours in a culture medium in which 2% of sugars such as galactose, raffinose, trehalose, fructose, maltose, mannose, sucrose, and ribose, or DNA (negative control) had been added instead of glucose in the BM culture medium.

RAK2683 yeast strain [5] = settings: glucose not added to BM culture medium; 2% ethanol, 2% glycerol or 0.1 to 2% albumin; 24 hours
Experimental: OD600 was measured after RAK2683 yeast strain had been cultivated for 24 hours in a culture medium in which between 0.1 and 2% albumin had been added to the BM culture medium.

RAK2683 yeast strain [6] = assay: Candidate proliferation factors added to BM culture medium (FIG. 4); type: cell-based, Saccharomyces cerevisiae; settings: 24 hours
Experimental: Next, the yeast extract (M<5000) was further fractionated and proliferation was tested. […] As the substances having a molecular weight of roughly 500<M<1000, Acetyl-CoA, CoA, yeast RNA (RNA), and NAD were selected; each was added to a BM culture medium; and RAK2683 yeast strain was cultivated for 24 hours, after which OD600 was measured. Moreover, the yeast extract (YE)-added culture medium and YPD culture medium were treated as positive controls.

RAK2683 yeast strain [7] = assay: Investigation of nitrogen source used singly in MM culture medium instead of ammonium sulfate (Table 4); type: cell-based, Saccharomyces cerevisiae; settings: Table 4 conditions
[8] = tested on: commercially available baker's yeast; assay: Aspartic acid swapped with ammonium sulfate, compared with MM and YPD (FIG. 2); type: cell-based; settings: between 0.5 and 2.0% aspartic acid added
Experimental: In Table 4, a culture medium was prepared in which aspartic acid (Asp), which had the highest value for OD600 after 48 hours, was swapped with ammonium sulfate, and the proliferation of yeast (commercially available baker's yeast) in the MM culture medium and YPD was compared. […] Based on this information, a BM culture medium in which 2% aspartic acid had been added as a nitrogen source to 0.17% YNB and 2% glucose was used as an object of investigation.

[9] = tested on: Saccharomyces cerevisiae RAK3599 strain; assay: Leucine concentration in AKD culture medium, RAK3599 strain (FIG. 16B); type: cell-based
[10] = tested on: Saccharomyces cerevisiae leucine-requiring RAK778 strain (BY4712 (leu2Δ0) strain); assay: Leucine concentration in AKD culture medium, leucine-requiring strain (FIG. 16A); type: cell-based
Text: Leucine concentration in the AKD culture mediums was adjusted to 0%, 0.0001%, 0.001%, 0.01%, 0.1%, and 1%, respectively, and proliferation of a Saccharomyces cerevisiae leucine-requiring RAK778 strain (BY4712 (leu2Δ0) strain) was investigated. […] Given the above-noted results, a preferred leucine concentration was understood to be around 0.1%.

O=C(O)CCCC[C@@H]1SC[C@@H]2NC(=O)N[C@@H]21 [biotin] was tested, and the “nutritional requirement of the strain” value [1] was “require”, the “nutritional requirement of the strain” value [2] was “require” and the “nutritional requirement of the strain” value [3] was “not require”. The “concentration at which proliferation was slightly inhibited” value (RAK3599 strain; AKD′ culture medium) was 200 µg/L, the preferred concentration (RAK3599 strain; AKD′ culture medium) was “around 2 μg/L” and the “proliferation at a content of 0” value (RAK3599 strain) was “Almost no proliferation”.
O=C[C@H](O)[C@H](O)[C@H](O)CO [ribose] was tested, and the “proliferation as carbon source” value [4] was “no proliferation whatsoever”.
For albumin, the “proliferation as carbon source” value (RAK2683 yeast strain [5]) was “almost no proliferation”.
In the case of Cc1ncc(C[n+]2csc(CCO)c2C)c(N)n1 [thiamine, Thiamine hydrochloride], the “nutritional requirement of the strain” value [2] is reported as “require”, the “nutritional requirement of the strain” value [3] is reported as “require” and the preferred concentration (RAK3599 strain; AKD′ culture medium) is reported as “around 400 μg/L”. The “proliferation at a content of 0” value (RAK3599 strain) was “A fair degree of proliferation”.
NC(=O)c1ccc[n+]([C@@H]2O[C@H](COP(=O)([O-])OP(=O)(O)OC[C@H]3O[C@@H](n4cnc5c(N)ncnc54)[C@H](O)[C@@H]3O)[C@@H](O)[C@H]2O)c1 [NAD] was tested, and the “proliferation compared with YPD” value (RAK2683 yeast strain [6]) was “none of them reaching the proliferation level of YPD”.
In the case of O=S(=O)([O-])[O-].[Zn+2] [Zn2+, zinc sulfate], the “nutritional requirement of the strain” value [1] is reported as “preferable for proliferation” and the “nutritional requirement of the strain” value [3] is reported as “preferable for proliferation”.
With OC[C@H]1O[C@H](O[C@H]2O[C@H](CO)[C@@H](O)[C@H](O)[C@H]2O)[C@H](O)[C@@H](O)[C@@H]1O [trehalose] the “proliferation as carbon source” value [4] was “no proliferation whatsoever”.
In the case of CCO [ethanol], the “proliferation as carbon source” value (RAK2683 yeast strain [5]) is reported as “almost no proliferation”.
With CC(=O)SCCNC(=O)CCNC(=O)[C@H](O)C(C)(C)COP(=O)(O)OP(=O)(O)OC[C@H]1O[C@@H](n2cnc3c(N)ncnc32)[C@H](O)[C@@H]1OP(=O)(O)O [Acetyl-CoA] the “proliferation compared with YPD” value (RAK2683 yeast strain [6]) was “none of them reaching the proliferation level of YPD”.
With CC(C)(COP(=O)(O)OP(=O)(O)OC[C@H]1O[C@@H](n2cnc3c(N)ncnc32)[C@H](O)[C@@H]1OP(=O)(O)O)[C@@H](O)C(=O)NCCC(=O)NCCS [CoA] the “proliferation compared with YPD” value (RAK2683 yeast strain [6]) was “none of them reaching the proliferation level of YPD”.
In the case of N[C@@H](CC(=O)[O-])C(=O)[O-].O.[Na+].[Na+] [Aspartic acid, L-Aspartic acid sodium salt monohydrate], the “proliferation when added singly as nitrogen source” value (RAK2683 yeast strain [7]) is reported as “favorable proliferation” and the “proliferation compared with ammonium sulfate-added culture medium” value [8] is reported as “proliferation markedly improved over that of a culture medium to which ammonium sulfate had been added”.
For O=C(O)c1cccnc1 [nicotinic acid], the “nutritional requirement of the strain” value [2] was “require”, the “concentration at which proliferation reached a maximum value” (RAK3599 strain; AKD′ culture medium) was 4 µg/mL and the “concentration at which proliferation was inhibited” value (RAK3599 strain; AKD′ culture medium) was 40 µg/mL. For the same molecule, the preferred concentration (RAK3599 strain; AKD′ culture medium) was “around 4000 μg/L”, the “proliferation at a content of 0” value (RAK3599 strain) was “A significant degree of proliferation” and the “OD600 after 24 hours” value (RAK3599 strain; AKD′ culture medium, nicotinic acid 0 μg/mL) was 9. The “OD600 after 24 hours” value (RAK3599 strain; AKD′ culture medium, nicotinic acid 0.004 μg/mL) was 10, the “OD600 after 24 hours” value (RAK3599 strain; AKD′ culture medium, nicotinic acid 0.04 μg/mL) was 10 and the “OD600 after 24 hours” value (RAK3599 strain; AKD′ culture medium, nicotinic acid 0.4 μg/mL) was 9. For the same molecule, the “OD600 after 24 hours” value (RAK3599 strain; AKD′ culture medium, nicotinic acid 4 μg/mL) was 10 and the “OD600 after 24 hours” value (RAK3599 strain; AKD′ culture medium, nicotinic acid 40 μg/mL) was 8.
In the case of CC(C)C[C@H](N)C(=O)O [Leucine, L-Leucine], the “concentration at which proliferation was inhibited” value [9] is reported as 1%, the “concentration at which almost no proliferation was observed” value [10] is reported as “less than 0.001%” and the “concentration at which proliferation reached a maximum value” [10] is reported as 0.1%. For the same molecule, the “concentration at which proliferation was inhibited” value [10] was 1% and the preferred concentration ([10]; from results with RAK778 and RAK3599 strains) was “around 0.1%”.
With OCC(O)CO [glycerol] the “proliferation as carbon source” value (RAK2683 yeast strain [5]) was “almost no proliferation”.
